Data on two compounds can be found in patent US5936065A, “CS-1 peptidomimetics, compositions and methods of using the same” (Cytel Corporation, priority 1995, dated 1999).

One data set deals with T1, VLA-4 receptor (Homo sapiens, UniProt P05556+P13612).
T1 construct: inflammatory cells that contain the VLA-4 receptor [Jurkat cells; host or cells: Jurkat cells (human T lymphoblastic line)
The data set can be described thus: In vitro binding assay: inhibition of binding of 51Cr-labeled Jurkat cells to solid phase-bound CS-1 compound (SEQ ID NO:1). In kind it is cell-based. As to conditions: for Relative Potency: binding inhibition potency (IC50) normalized to standard compound of SEQ ID NO:3 = 1, multiple assays averaged, about one-tenth or less assigned zero. How it is done:
Binding inhibition is measured here as a concentration of compound that inhibits one-half the binding between a standard number of Jurkat cells and a standard amount of CS-1 compound bound to the surface of a microtiter plate well. Those concentrations are conveniently expressed as IC50 values, smaller numbers indicating a lower concentration required to inhibit 50 percent binding and therefore greater potency. Further specifics of this assay are provided hereinafter.
Jurkat cells (ATCC TIB 152), a human T lymphoblastic line, labeled with ^51 chromium were used to assay in vitro binding inhibition provided by various compounds discussed herein.
The plates were prepared as follows: The 25-mer CS-1 compound (SEQ ID NO:1) dissolved at 0.5-1 μg/ml in a buffer of 0.1M NaHCO3 at pH 9.5 that also contained 10 μg/ml of bovine serum albumin (BSA) or a conjugate of the CS-1 compound linked to ovalbumin (CS-1-OVA) dissolved at 1-2.5 μg/ml in the same buffer was used as the substrate. Each well of the microtiter plates was coated with 50 μl of substrate or buffer alone for controls. The wells were permitted to dry out completely and were then rinsed twice with PBS at pH 7.4. Non-specific binding sites of each well were then blocked using 200 μl per well of RPMI/1 percent BSA for two hours at room temperature.
Jurkat cells (3-5×10^6 cells) were placed into a 15 ml Falcon™ round-bottom tube with a cap. The tube was centrifuged, and the extra medium was then removed.
Two hundred microliters of a ^51 Cr labeling solution were added to the centrifuged cells and maintained in contact with the cells for 90-120 minutes in a warm room. […] Longer contact times provide a greater amount of labeling but lower cell viability.
The labeled cells are washed with (i) complete medium, (ii) 1 mM EDTA/PBS and then (iii) RPM1/1 percent BSA free of serum components. The cells are centrifuged after each washing. The cells are finally resuspended in serum-free RPMI/1 percent BSA at a concentration of 1×10^6 viable cells/ml, which provides a concentration that is diluted by one-half in the assay.
Inhibitor compounds are prepared as stock solutions at 20 mg/ml in DMSO in 1.5 ml cryogenic screwcap vials, and were stored at -70° C. Using Flow™ round-bottom or V-bottom microtiter plates, the inhibitor compounds were prepared at twice the assay concentration in RPMI/1 percent BSA at 60 μl/well.
Four initial dilutions were typically used.
The ^51 Cr-labeled cells ([…] at 60 μl/well) were then admixed with the diluted compound solutions. The admixtures were maintained at room temperature (about 22° C.) for 30 minutes.
One hundred microliters of each inhibitor compound/cell admixture were transferred to the substrate-coated wells. This was done in triplicate for each dilution. The resulting plates were incubated for 30 minutes at 37° C. and then washed gently three times with RPMI/1 percent BSA at 200 μl/well. Binding was observed microscopically, particularly after the second wash.
The bound cells were then lysed by the addition of a 0.5 percent solution of sodium dodecylsulfate in water at 100 μl/well. The resulting solutions were then processed for counting and calculation of IC50 values following usual procedures.
The data of Table 1 are normalized to the binding of SEQ ID NO:3. […] Multiple assays for the same compound were averaged.

The subject of a further data set is SJL/J mice. Put plainly: Experimental autoimmune encephalomyelitis in mice. In kind it is in vivo. As to conditions: 1 mg/mouse intraperitoneally at days 8 and 9; FIG. 6. How it is done:
EAE was induced in female SJL/J mice (8 to 14 weeks old) by immunization on day zero with 50 μg of a compound corresponding to positions 139-151 of PLP emulsified in a 1:1 mixture of PBS and complete Freund's adjuvant (CFA). Each mouse was injected with 0.2 ml of the adjuvant emulsion subcutaneously (s.c.) at two sites in the hind flank. All mice received 10^7 killed Bordetella pertussis units in 100 μl were injected intravenously 24 to 72 hours later.
Mice were observed daily, beginning at day 8 for clinical signs of EAE, and disease was scored on a scale of 0-5 as: 0=no disease; 1=floppy tail; 2=moderate hind limb weakness; 3=paraparesis; 4=paraplegis with moderate forelimb weakness; 5=qualdriplegis or premoribund state.
The inhibitor compound, Compound ID No. 896.52, N-phenylacetyl-Leu-Asp-Phe-D-Pro-NH2 was administered intraperitoneally at 1 mg/mouse in 0.2 ml of incomplete Freund's adjuvant at days 8 and 9. A compound having a scrambled sequence [N-phenylacetyl-Asp-Leu-Phe-D-Pro-NH2 ] was similarly administered to serve as a control.
Summed or averaged scores for clinical signs were plotted vs. time. The area under the resulting curves was calculated between day 8 and day 35 to calculate percentage inhibition of EAE by an inhibitor compound. The percent inhibition was calculated as follows:
[…]

A short description of data set [1]: Retention of potency in PBS containing 10 percent mouse or human serum. Format: in vitro ADME. As to conditions: PBS at 7.2-7.4 containing 10 percent mouse or human serum; 24 hours.

The structures appear in SMILES notation. Square brackets hold non-standard residues; d marks the D form. Peptide text beside a SMILES is read from it. * marks the point of attachment. PhAc = O=C(Cc1ccccc1)*

T1 sequence (P13612 34-1032): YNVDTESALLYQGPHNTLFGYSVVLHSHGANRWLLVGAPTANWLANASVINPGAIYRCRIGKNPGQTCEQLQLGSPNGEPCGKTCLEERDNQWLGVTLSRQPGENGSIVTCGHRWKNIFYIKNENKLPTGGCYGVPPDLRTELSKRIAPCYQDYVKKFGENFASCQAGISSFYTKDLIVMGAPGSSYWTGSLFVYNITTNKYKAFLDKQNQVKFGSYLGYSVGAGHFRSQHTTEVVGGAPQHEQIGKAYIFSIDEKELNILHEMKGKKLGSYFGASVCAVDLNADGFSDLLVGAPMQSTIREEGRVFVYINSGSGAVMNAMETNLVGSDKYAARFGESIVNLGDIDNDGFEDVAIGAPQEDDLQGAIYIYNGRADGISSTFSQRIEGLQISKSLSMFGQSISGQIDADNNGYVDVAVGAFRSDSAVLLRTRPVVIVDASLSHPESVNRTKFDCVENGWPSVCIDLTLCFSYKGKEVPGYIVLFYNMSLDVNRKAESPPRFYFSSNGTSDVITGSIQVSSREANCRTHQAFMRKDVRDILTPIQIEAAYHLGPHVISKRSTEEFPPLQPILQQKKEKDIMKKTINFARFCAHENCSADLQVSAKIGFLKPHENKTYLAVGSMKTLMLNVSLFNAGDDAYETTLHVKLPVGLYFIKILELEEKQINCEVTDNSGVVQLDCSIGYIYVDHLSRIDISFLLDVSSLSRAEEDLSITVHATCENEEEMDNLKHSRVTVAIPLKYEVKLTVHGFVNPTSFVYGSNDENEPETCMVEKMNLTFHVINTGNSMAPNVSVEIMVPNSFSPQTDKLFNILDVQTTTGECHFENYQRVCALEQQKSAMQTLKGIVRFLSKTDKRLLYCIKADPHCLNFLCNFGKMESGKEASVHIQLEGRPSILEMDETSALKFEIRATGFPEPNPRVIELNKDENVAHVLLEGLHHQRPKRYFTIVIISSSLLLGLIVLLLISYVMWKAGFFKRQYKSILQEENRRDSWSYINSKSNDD
T1 sequence (P05556 21-798): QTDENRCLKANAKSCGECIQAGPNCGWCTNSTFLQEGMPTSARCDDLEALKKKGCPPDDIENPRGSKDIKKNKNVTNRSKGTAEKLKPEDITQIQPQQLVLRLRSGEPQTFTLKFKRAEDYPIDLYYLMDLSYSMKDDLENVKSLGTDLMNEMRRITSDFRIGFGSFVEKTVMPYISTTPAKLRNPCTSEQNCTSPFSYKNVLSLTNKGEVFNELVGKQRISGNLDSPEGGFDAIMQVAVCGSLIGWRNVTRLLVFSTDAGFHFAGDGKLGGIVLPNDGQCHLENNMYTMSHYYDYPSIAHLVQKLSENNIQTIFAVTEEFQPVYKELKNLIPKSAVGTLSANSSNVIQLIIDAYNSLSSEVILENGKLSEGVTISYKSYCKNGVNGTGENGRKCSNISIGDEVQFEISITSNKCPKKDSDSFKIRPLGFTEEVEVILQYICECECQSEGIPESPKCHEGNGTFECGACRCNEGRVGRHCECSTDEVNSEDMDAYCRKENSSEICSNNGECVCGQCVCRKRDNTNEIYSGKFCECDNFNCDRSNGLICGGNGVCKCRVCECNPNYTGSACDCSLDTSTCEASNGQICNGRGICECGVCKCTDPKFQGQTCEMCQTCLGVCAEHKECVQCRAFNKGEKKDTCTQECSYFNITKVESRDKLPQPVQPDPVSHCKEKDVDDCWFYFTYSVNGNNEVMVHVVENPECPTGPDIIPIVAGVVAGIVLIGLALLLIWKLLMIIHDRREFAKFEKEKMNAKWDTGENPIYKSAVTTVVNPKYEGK

Take `CC(C)C[C@H](NC(=O)[C@H](CC(=O)O)NC(=O)Cc1ccccc1)C(=O)N[C@@H](Cc1ccccc1)C(=O)N1CCC[C@@H]1C(N)=O` [N-phenylacetyl-Asp-Leu-Phe-D-Pro-NH2, reference compound] (PhAc-DLF[dP]-NH2): on VLA-4 receptor, the “binding inhibition, in words (compared with standard 10-mer of SEQ ID NO:3 or other compounds)” value is given as “no inhibition of VLA-4” and the “Relative Potency” value is on record as 0.

As to `CC(C)C[C@H](NC(=O)Cc1ccccc1)C(=O)N[C@@H](CC(=O)O)C(=O)N[C@@H](Cc1ccccc1)C(=O)N1CCC[C@@H]1C(N)=O` [896.52, N-phenylacetyl-Leu-Asp-Phe-D-Pro-NH2] (PhAc-LDF[dP]-NH2), the “clinical signs of EAE” value with SJL/J mice is “marked improvement in clinical signs”. Also, the “IC50 value, times less than the IC50 value for the standard 10-mer” value at VLA-4 receptor (as shown in Table 1) was “about 312 times”. The “Relative Potency” value at VLA-4 receptor turned out to be 313. Moreover, in data set [1], the “loss of potency in serum-containing buffer” value is “no loss of potency”.
